The record followed here is patent US20250163104A1, “MACROCYCLIC IMMUNOMODULATORS” (priority 2021, published 2025).

Molecules are shown by their SMILES. Where a SMILES comes first, the peptide text is derived from it. Bridges are numbered along the chain shown (N, C = ends). [ ]: non-standard residue; d: D form. The star is where a group is joined. ξ: configuration not given here. Ala(6-(2-MePh)pyridin-3-yl) = Cc1ccccc1-c1ccc(C[C@H](N)C(=O)O)cn1; Bip(4'-COOH) = N[C@@H](Cc1ccc(-c2ccc(C(=O)O)cc2)cc1)C(=O)O; Phe(3-CF3) = N[C@@H](Cc1cccc(C(F)(F)F)c1)C(=O)O; Ala(morpholin-4-yl) = N[C@@H](CN1CCOCC1)C(=O)O; Phe(4-COOH) = N[C@@H](Cc1ccc(C(=O)O)cc1)C(=O)O; Bip = N[C@@H](Cc1ccc(-c2ccccc2)cc1)C(=O)O; Phe(3-Me) = Cc1cccc(C[C@H](N)C(=O)O)c1; 3Pal = N[C@@H](Cc1cccnc1)C(=O)O; 4Pal = N[C@@H](Cc1ccncc1)C(=O)O; Cha = N[C@@H](CC1CCCCC1)C(=O)O; Cit = NC(=O)NCCC[C@H](N)C(=O)O; Carboxymethyl = O=C(O)C*; Orn = NCCC[C@H](N)C(=O)O; Pra = C#CC[C@H](N)C(=O)O; Dab = NCC[C@H](N)C(=O)O; Dap = NC[C@H](N)C(=O)O; ξPra = C#CCC(N)C(=O)O

For this assay, the target named is T1, human PD-1 / PD-L1-Ig binding on Jurkat cell line over-expressing human PD-1 (Jurkat-PD-1) (Homo sapiens, UniProt Q15116).
T1 construct: expressed in transfected cells; host or cells: Jurkat
T1 sequence (Q15116 25-288): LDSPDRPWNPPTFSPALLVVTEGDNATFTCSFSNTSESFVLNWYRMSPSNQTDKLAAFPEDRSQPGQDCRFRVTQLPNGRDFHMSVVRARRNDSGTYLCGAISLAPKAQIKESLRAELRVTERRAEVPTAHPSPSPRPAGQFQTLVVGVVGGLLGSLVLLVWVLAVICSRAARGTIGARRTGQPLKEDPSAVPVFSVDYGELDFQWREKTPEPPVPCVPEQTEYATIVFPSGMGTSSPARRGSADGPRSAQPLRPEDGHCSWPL
Nature of the assay: Jurkat-PD-1 Cell Binding High-Content Screening Assay (CBA). The class given is cell-based. To be noted: Jurkat-PD-1 cells, PE-labeled PD-L1-Ig 20 nM final; read-out: Jurkat HPD1_PDL1 IC50. The essentials: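 Binding of fluorescent PD-L1-Ig (phycoerythrin linked via the Ig tag, 20 nM final) to PD-1-overexpressing Jurkat cells was imaged after a 2 h, 37° C compound pretreatment and 1 hour ligand incubation.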

Take `CCCC[C@H]1NC(=O)[C@H](CCCN)NC(=O)[C@H]([C@@H](C)CC)NC(=O)[C@H](Cc2ccc(-c3ccccc3)cc2)NC(=O)[C@H](C(C)C)NC(=O)[C@H](Cc2c[nH]c3ccccc23)NC(=O)[C@H](CC(=O)O)NC(=O)[C@H](Cc2ccc(C(=O)O)cc2)NC(=O)[C@H](Cc2ccc(OCC(=O)O)cc2)NC(=O)CSC[C@@H](C(=O)N[C@@H](C)C(N)=O)NC(=O)[C@H]([C@@H](C)O)NC(=O)[C@H](C(C)C)NC(=O)[C@H](CC2CCCCC2)NC(=O)[C@H](CCN)NC1=O` [Compound 1707]: the IC50 was 18.6 nM. For `C#CC[C@H](NC(=O)[C@H](CCN)NC(=O)[C@@H]1CSCC(=O)N[C@@H](CN)C(=O)N[C@@H](Cc2ccc(OCC(=O)O)cc2)C(=O)N[C@@H](CC(=O)O)C(=O)N[C@@H](Cc2cccc(C)c2)C(=O)N[C@@H](Cc2ccc(OCC(=O)O)cc2)C(=O)N[C@@H](Cc2ccc(-c3ccccc3)cc2)C(=O)N[C@@H](Cc2ccc(OCC(=O)O)cc2)C(=O)N[C@@H](CCCN)C(=O)N[C@H](CC(C)C)C(=O)N[C@@H](CCN)C(=O)N[C@@H](CC2CCCCC2)C(=O)N[C@@H](C(C)C)C(=O)N[C@@H](CO)C(=O)N1)C(N)=O` [Compound 1861] ({CH2CO}-[Dap]Y(Carboxymethyl)D[Phe(3-Me)]Y(Carboxymethyl)[Bip]Y(Carboxymethyl)[Orn][dL][Dab][Cha]VSC[Dab][Pra]-NH2; thioether N-14), the concentration for half-maximal inhibition (IC50) is 10.8 nM.

With `CC(C)C[C@H]1NC(=O)[C@H](CCCN)NC(=O)[C@H](CCC(=O)O)NC(=O)[C@H](Cc2ccc(-c3ccccc3)cc2)NC(=O)[C@H](C(C)C)NC(=O)[C@H](Cc2cccnc2)NC(=O)[C@H](CC(=O)O)NC(=O)[C@H](Cc2ccc(OCC(=O)O)cc2)NC(=O)[C@H](CN)NC(=O)CSC[C@@H](C(=O)N[C@@H](C)C(N)=O)NC(=O)[C@H]([C@@H](C)O)NC(=O)[C@H](C(C)C)NC(=O)[C@H](CC2CCCCC2)NC(=O)[C@H](CCN)NC1=O` [Compound 2156] ({CH2CO}-[Dap]Y(Carboxymethyl)D[3Pal]V[Bip]E[Orn][dL][Dab][Cha]VTCA-NH2; thioether N-14), the concentration for half-maximal inhibition (IC50) turned out to be 322 nM. For `CC[C@H](C)[C@@H]1NC(=O)[C@H](Cc2ccc(-c3ccccc3)cc2)NC(=O)[C@H](C(C)C)NC(=O)[C@H](Cc2c[nH]c3ccccc23)NC(=O)[C@H](CC(=O)O)NC(=O)[C@H](Cc2ccc(O)cc2)NC(=O)[C@H](CN)NC(=O)CSC[C@@H](C(=O)N[C@@H](C)C(N)=O)NC(=O)[C@H]([C@@H](C)O)NC(=O)[C@H](C(C)C)NC(=O)[C@H](CC2CCCCC2)NC(=O)[C@H](CCCNC(=N)N)NC(=O)[C@@H](CC(C)C)NC(=O)[C@H](CCCN)NC1=O` [Compound 1145] ({CH2CO}-[Dap]YDWV[Bip]I[Orn][dL]R[Cha]VTCA-NH2; thioether N-14), the IC50 stood at 8.7 nM.

For `CC(C)C[C@H]1NC(=O)[C@H](CCCN)NC(=O)[C@H](CCC(=O)O)NC(=O)[C@H](Cc2ccc(-c3ccccc3)cc2)NC(=O)[C@H](C(C)C)NC(=O)[C@H](Cc2c[nH]c3ccccc23)NC(=O)[C@H](CC(=O)O)NC(=O)[C@H](Cc2ccc(OCC(=O)O)cc2)NC(=O)[C@H](CN)NC(=O)CSC[C@@H](C(=O)N[C@@H](C)C(N)=O)NC(=O)[C@H]([C@@H](C)O)NC(=O)[C@H](C(C)C)NC(=O)[C@H](CC2CCCCC2)NC(=O)[C@H](CC(N)=O)NC1=O` [Compound 1512] ({CH2CO}-[Dap]Y(Carboxymethyl)DWV[Bip]E[Orn][dL]N[Cha]VTCA-NH2; thioether N-14), the IC50 is 22.9 nM. In the case of `Cc1cccc(C[C@@H]2NC(=O)[C@H](CC(=O)O)NC(=O)[C@H](Cc3ccc(C(=O)O)cc3)NC(=O)[C@H](Cc3ccc(OCC(=O)O)cc3)NC(=O)CSC[C@@H](C(=O)N[C@H](CCC(=O)O)C(=O)O)NC(=O)[C@H](CCCN)NC(=O)[C@H](C(C)C)NC(=O)[C@H](CC3CCCCC3)NC(=O)[C@H](CCN)NC(=O)[C@@H](CC(C)C)NC(=O)[C@H](CCN)NC(=O)[C@H](C(C)C)NC(=O)[C@H](Cc3ccc(-c4ccccc4)cc3)NC(=O)[C@H](C(C)C)NC2=O)c1` [Compound 2590] ({CH2CO}-Y(Carboxymethyl)[Phe(4-COOH)]D[Phe(3-Me)]V[Bip]V[Dab][dL][Dab][Cha]V[Orn]C[dE]-OH; thioether N-14) it was 30.2 nM. Consider `CC(C)C[C@H]1NC(=O)[C@H](CCCN)NC(=O)[C@H](CCC(=O)O)NC(=O)[C@H](Cc2ccc(-c3ccccc3)cc2)NC(=O)[C@H](C(C)C)NC(=O)[C@H](Cc2c[nH]c3ccccc23)NC(=O)[C@H](CC(=O)O)NC(=O)[C@H](Cc2ccc(-c3ccc(C(=O)O)cc3)cc2)NC(=O)[C@H](Cc2ccccc2)NC(=O)CSC[C@@H](C(=O)N[C@@H](C)C(N)=O)NC(=O)[C@H]([C@@H](C)O)NC(=O)[C@H](C(C)C)NC(=O)[C@H](CC2CCCCC2)NC(=O)[C@H](CCN)NC1=O` [Compound 2167] ({CH2CO}-F[Bip(4'-COOH)]DWV[Bip]E[Orn][dL][Dab][Cha]VTCA-NH2; thioether N-14), for which the IC50 is 17.2 nM.

`C#CCC(NC(=O)[C@H](CCCCN)NC(=O)[C@@H]1CSCC(=O)N[C@@H](Cc2ccncc2)C(=O)N[C@@H](Cc2ccc(OCC(=O)O)cc2)C(=O)N[C@@H](CC(=O)O)C(=O)N[C@@H](Cc2c[nH]c3ccccc23)C(=O)N[C@@H](C(C)C)C(=O)N[C@@H](Cc2ccc(-c3ccccc3)cc2)C(=O)N[C@@H]([C@@H](C)CC)C(=O)N[C@@H](CCCN)C(=O)N[C@H](CC(C)C)C(=O)N[C@@H](CCN)C(=O)N[C@@H](CC(C)C)C(=O)N[C@@H](C(C)C)C(=O)N[C@@H]([C@@H](C)O)C(=O)N1)C(N)=O` (stereo partly drawn) [Compound 1767] ({CH2CO}-[4Pal]Y(Carboxymethyl)DWV[Bip]I[Orn][dL][Dab]LVTCK[ξPra]-NH2; thioether N-14): the IC50 stood at 16.7 nM. For `CC(C)C[C@H]1NC(=O)[C@H](CCCN)NC(=O)[C@H](C(C)C)NC(=O)[C@H](Cc2ccc(-c3ccccc3)cc2)NC(=O)[C@H](C(C)C)NC(=O)[C@H](Cc2c[nH]c3ccccc23)NC(=O)[C@H](CC(=O)O)NC(=O)[C@H](Cc2ccc(OCC(=O)O)cc2)NC(=O)[C@H](CN)NC(=O)CSC[C@@H](C(=O)N[C@@H](C)C(N)=O)NC(=O)[C@H](CCCN)NC(=O)[C@H](C(C)C)NC(=O)[C@H](CC2CCCCC2)NC(=O)[C@H](CCN)NC1=O` [Compound 1741] ({CH2CO}-[Dap]Y(Carboxymethyl)DWV[Bip]V[Orn][dL][Dab][Cha]V[Orn]CA-NH2; thioether N-14) the value was 8.8 nM.

For the molecule `Cc1ccccc1-c1ccc(C[C@@H]2NC(=O)[C@H](CN)NC(=O)CSC[C@@H](C(=O)N[C@@H](C)C(N)=O)NC(=O)[C@H]([C@@H](C)O)NC(=O)[C@H](C(C)C)NC(=O)[C@H](CC3CCCCC3)NC(=O)[C@H](CCN)NC(=O)[C@@H](CC(C)C)NC(=O)[C@H](CCCN)NC(=O)[C@H](CCCNC(N)=O)NC(=O)[C@H](Cc3ccc(-c4ccccc4)cc3)NC(=O)[C@H](C(C)C)NC(=O)[C@H](Cc3c[nH]c4ccccc34)NC(=O)[C@H](CC(=O)O)NC2=O)cn1` [Compound 2135] ({CH2CO}-[Dap][Ala(6-(2-MePh)pyridin-3-yl)]DWV[Bip][Cit][Orn][dL][Dab][Cha]VTCA-NH2; thioether N-14), the IC50 came to 131 nM.

On to `CCC(C)[C@@H]1NC(=O)[C@H](Cc2ccc(-c3ccccc3)cc2)NC(=O)[C@H](C(C)C)NC(=O)[C@H](Cc2ccc(F)c(C)c2)NC(=O)[C@H](CC(=O)O)NC(=O)[C@H](Cc2ccc(OCC(=O)O)cc2)NC(=O)[C@H](CN)NC(=O)CSC[C@@H](C(=O)N[C@@H](C)C(N)=O)NC(=O)[C@H]([C@@H](C)O)NC(=O)[C@H](C(C)C)NC(=O)[C@H](CC2CCCCC2)NC(=O)[C@H](CCN)NC(=O)[C@@H](CC(C)C)NC(=O)[C@H](CCCN)NC1=O` (some centres unmarked) [Compound 2244], for which the IC50 is 32.9 nM. `CC(C)C[C@@H]1NC(=O)[C@H](Cc2c[nH]c3ccccc23)NC(=O)[C@H](CC(=O)O)NC(=O)[C@H](Cc2ccc(O)cc2)NC(=O)[C@H](Cc2ccccc2)NC(=O)CSC[C@@H](C(=O)N[C@@H](C)C(N)=O)NC(=O)[C@H](CO)NC(=O)[C@H](C(C)C)NC(=O)[C@H](CC(C)C)NC(=O)[C@H](CC(N)=O)NC(=O)[C@@H](CC(C)C)NC(=O)[C@H](CCCN)NC(=O)[C@H](CCC(=O)O)NC(=O)[C@H](Cc2ccc(-c3ccccc3)cc2)NC1=O` [Compound 1235] ({CH2CO}-FYDWL[Bip]E[Orn][dL]NLVSCA-NH2; thioether N-14): the half-maximal inhibitory concentration (IC50) was found to be 21 nM. In the case of `CC(C)C[C@H]1NC(=O)[C@H](CCCN)NC(=O)[C@H](Cc2ccc(C(=O)O)cc2)NC(=O)[C@H](Cc2ccc(-c3ccccc3)cc2)NC(=O)[C@H](Cc2ccc(-c3ccccc3)cc2)NC(=O)[C@H](Cc2cccc(C(F)(F)F)c2)NC(=O)[C@H](CC(=O)O)NC(=O)[C@H](Cc2ccc(C(=O)O)cc2)NC(=O)[C@H](CN2CCOCC2)NC(=O)CSC[C@@H](C(=O)N[C@@H](CCN)C(N)=O)NC(=O)[C@H](CCC(=O)O)NC(=O)[C@H](C(C)C)NC(=O)[C@H](CC2CCCCC2)NC(=O)[C@H](CCN)NC1=O` [Example 2746] ({CH2CO}-[Ala(morpholin-4-yl)][Phe(4-COOH)]D[Phe(3-CF3)][Bip][Bip][Phe(4-COOH)][Orn][dL][Dab][Cha]VEC[Dab]-NH2; thioether N-14) it was 3.7 nM; in that of `COc1cccc(C[C@@H]2NC(=O)[C@H](CC(=O)O)NC(=O)[C@H](Cc3ccc(O)cc3)NC(=O)[C@H](Cc3ccncc3)NC(=O)CSC[C@@H](C(=O)N[C@@H](C)C(N)=O)NC(=O)[C@H]([C@@H](C)O)NC(=O)[C@H](C(C)C)NC(=O)[C@H](CC3CCCCC3)NC(=O)[C@H](CCN)NC(=O)[C@@H](CC(C)C)NC(=O)[C@H](CCCN)NC(=O)[C@H](CCC(=O)O)NC(=O)[C@H](Cc3ccc(-c4ccccc4)cc3)NC(=O)[C@H](C(C)C)NC2=O)c1` [Compound 1543], 27.7 nM.

In general, IC50 refers to the concentration that gives 50% inhibition.
